Reference: publication PMC11246513, “Exploring bat-inspired cyclic tryptophan diketopiperazines as ABCB1 Inhibitors” (Communications Chemistry, 2024)

Tests used:
bat ABCB1 [1] = molecular target: T1, bat ABCB1 (Pteropus alecto, UniProt L5JS44); experiment: rhodamine […] efflux inhibition, flow cytometry, PaKiT03 cells; format: cell-based
T1 construct: gene PAL_GLEAN10013639; endogenous ABCB1 in PaKiT03 cells

ABCB1 [2] = molecular target: T2, ABCB1 (Homo sapiens, UniProt P08183); experiment: rhodamine […] efflux inhibition, flow cytometry, HEK293T ABCB1 cells; format: cell-based; set-up: human ABCB1 (ABCB1-TEV-His-FLAG) stably expressed in HEK293T
T2 sequence (P08183 whole entry): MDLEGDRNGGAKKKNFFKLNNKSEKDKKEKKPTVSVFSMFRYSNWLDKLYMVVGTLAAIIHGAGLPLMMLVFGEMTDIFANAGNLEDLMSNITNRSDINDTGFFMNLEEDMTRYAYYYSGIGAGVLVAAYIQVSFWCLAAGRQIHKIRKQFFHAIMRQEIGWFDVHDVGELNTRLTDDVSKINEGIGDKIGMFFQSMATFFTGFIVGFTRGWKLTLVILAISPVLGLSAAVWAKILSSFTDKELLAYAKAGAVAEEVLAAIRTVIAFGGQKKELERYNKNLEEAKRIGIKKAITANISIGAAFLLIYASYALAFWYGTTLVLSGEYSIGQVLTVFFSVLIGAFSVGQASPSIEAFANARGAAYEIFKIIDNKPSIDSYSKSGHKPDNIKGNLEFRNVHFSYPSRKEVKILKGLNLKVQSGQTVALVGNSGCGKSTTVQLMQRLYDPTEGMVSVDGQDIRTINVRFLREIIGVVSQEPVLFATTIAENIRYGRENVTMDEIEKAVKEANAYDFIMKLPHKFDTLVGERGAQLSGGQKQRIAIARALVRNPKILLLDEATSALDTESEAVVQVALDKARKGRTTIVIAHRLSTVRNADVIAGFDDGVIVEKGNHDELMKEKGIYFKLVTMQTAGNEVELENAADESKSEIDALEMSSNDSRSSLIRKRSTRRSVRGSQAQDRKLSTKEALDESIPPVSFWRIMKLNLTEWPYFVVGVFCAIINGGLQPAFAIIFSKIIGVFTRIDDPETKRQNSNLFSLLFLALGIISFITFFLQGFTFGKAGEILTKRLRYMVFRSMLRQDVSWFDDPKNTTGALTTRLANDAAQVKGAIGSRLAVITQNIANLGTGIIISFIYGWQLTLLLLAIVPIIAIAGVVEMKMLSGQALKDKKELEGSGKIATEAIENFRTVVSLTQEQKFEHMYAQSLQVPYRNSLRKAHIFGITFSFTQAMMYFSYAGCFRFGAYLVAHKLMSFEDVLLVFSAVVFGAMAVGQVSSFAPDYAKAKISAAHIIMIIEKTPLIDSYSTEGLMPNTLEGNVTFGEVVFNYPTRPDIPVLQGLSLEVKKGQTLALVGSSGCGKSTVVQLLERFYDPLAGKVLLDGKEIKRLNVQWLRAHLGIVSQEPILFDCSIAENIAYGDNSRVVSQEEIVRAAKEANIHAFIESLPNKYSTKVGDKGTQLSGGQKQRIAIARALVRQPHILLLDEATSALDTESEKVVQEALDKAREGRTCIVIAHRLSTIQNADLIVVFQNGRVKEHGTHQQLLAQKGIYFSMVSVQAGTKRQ

bat ABCB1 [3] = molecular target: T1, bat ABCB1; experiment: rhodamine […] efflux inhibition, flow cytometry, PaKiT03 cells with ABCB1 KO control; format: cell-based
ABCB1 [4] = molecular target: T2, ABCB1; format: biochemical; set-up: human ABCB1-FLAG, purified and reconstituted into egg lecithin liposome

T1 sequence (L5JS44 1-1308): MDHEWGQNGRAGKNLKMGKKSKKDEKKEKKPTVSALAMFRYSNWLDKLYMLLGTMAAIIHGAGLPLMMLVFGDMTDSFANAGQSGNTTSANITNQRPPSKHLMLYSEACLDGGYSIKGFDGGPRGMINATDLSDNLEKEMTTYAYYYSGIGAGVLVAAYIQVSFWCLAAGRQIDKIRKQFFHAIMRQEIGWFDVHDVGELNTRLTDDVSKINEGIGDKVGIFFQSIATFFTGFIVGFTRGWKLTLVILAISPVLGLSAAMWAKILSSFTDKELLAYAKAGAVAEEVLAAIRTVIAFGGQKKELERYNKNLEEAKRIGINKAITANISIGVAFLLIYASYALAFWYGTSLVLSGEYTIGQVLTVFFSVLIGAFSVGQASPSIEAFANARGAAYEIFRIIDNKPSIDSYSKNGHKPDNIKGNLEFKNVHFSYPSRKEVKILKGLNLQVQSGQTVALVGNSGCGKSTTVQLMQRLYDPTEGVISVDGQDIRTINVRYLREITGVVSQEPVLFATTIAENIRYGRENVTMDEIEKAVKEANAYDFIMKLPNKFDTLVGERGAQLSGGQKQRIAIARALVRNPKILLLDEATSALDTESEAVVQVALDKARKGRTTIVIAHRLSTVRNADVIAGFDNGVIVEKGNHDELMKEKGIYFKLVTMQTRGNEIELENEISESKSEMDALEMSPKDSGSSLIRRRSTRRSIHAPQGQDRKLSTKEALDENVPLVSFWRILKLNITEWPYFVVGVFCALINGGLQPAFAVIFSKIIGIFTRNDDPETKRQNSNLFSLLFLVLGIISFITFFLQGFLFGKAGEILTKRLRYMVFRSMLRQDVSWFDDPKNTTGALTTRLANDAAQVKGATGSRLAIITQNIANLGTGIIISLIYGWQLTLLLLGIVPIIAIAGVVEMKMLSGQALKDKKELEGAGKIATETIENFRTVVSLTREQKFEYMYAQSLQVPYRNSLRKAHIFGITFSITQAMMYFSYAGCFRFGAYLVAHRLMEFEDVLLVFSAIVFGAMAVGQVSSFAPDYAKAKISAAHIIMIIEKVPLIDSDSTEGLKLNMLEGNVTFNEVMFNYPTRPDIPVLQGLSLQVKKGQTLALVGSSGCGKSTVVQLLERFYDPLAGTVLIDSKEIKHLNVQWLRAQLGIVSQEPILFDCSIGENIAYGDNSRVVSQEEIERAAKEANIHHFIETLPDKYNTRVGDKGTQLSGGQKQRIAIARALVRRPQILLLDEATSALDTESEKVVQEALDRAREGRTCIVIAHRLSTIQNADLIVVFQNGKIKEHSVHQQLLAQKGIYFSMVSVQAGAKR

Q: What does the source list for `COc1cc2c(cc1OC)CN(CCc1ccc(NC(=O)c3cc(OC)c(OC)cc3NC(=O)c3cnc4ccccc4c3)cc1)CC2` [tariquidar]?
A: IC50 (bat ABCB1 [1]): 2 nM; IC50 (ABCB1 [2]): 16 nM

Q: For `O=C1N[C@@H](Cc2c[nH]c3ccccc23)C(=O)N2[C@H]1C[C@@]1(Cc3ccccc3)c3ccccc3N(Cc3ccccc3)[C@@H]21` [C3N-Dbn-Trp2], which IC50 (bat ABCB1 [3]) is on record?
A: The IC50 was 900 nM.

Q: And the IC50 (ABCB1 [2])?
A: The IC50 was 5900 nM.

Q: How did the “ATPase stimulation of purified reconstituted ABCB1 (ADP by HPLC); supported by d” value (ABCB1 [4]) turn out when `O=C1N[C@@H](Cc2c[nH]c3ccccc23)C(=O)N[C@H]1Cc1c[nH]c2ccccc12` [Cyclo-(L-Trp-L-Trp)] was run?
A: Its value is ~ 2 mM.

Q: How did the “ATPase stimulation of purified reconstituted ABCB1 (ADP by HPLC); supported by d” value (ABCB1 [4]) turn out when `Cn1cc(C[C@@H]2NC(=O)[C@H](Cc3cn(C)c4ccccc34)NC2=O)c2ccccc21` [Cyclo-(L-1-methyl-Trp-L-1-methyl-Trp)] was run?
A: Its value is “Cyclo-(L-1-methyl-Trp-L-1-methyl-Trp) consumed larger amounts of ATP than Cyclo-(L-Trp-L-Trp) in the in vitro ATPase assay”.
